According to patent US20220184040A1, “METHOD OF TREATING MALIGNANT RHABDOID TUMOR OF THE OVARY AND SMALL CELL CANCER OF THE OVARY OF THE HYPERCALCEMIC TYPE” (TRANSLATIONAL DRUG DEVELOPMENT, LLC, priority 2019, published 2022):
Entries after “also recorded” stand apart in the source; their conditions may differ. Like-named read-outs stand apart in the source and are kept apart here.

Tests used:
BIN67 = experiment: CellTiter-Glo cell viability assay, BIN67; type: cell-based; settings: Homo sapiens; BIN67, 72 hours treatment
Description: (§1) Cell viability was measured by the CellTiter -GlO® cell viability assay from Promega (Madison, Wis.). The CellTiter-GlO® Luminescent Cell Viability Assay is a homogeneous method to determine the number of viable cells in culture based on quantitation of the ATP present, which signals the presence of metabolically active cells. Following treatment, CellTiter-GlO® is added to treatment wells and incubated at 37° C. luminescence values were measured at using a Molecular Devices Spectramax microplate reader
(§2) Cells were grown to 70% confluency, trypsinized, counted, and seeded in 96 well flat-bottom plates at a final concentration of 2.5×10^3-5×10^3 cells/well (Day 0). Cells were allowed to incubate in growth media for 24 hours. Treatment with the test agents or standard agents began on Day 1 and continued for 72 hours. At the 72-hour timepoint, treatment containing media was removed. Viable cell numbers are quantified by the CellTiter-GlO® cell viability assay as described above. […]
(§3) For single agent and combination studies, data from each experiment was collected and expressed as % Cell Growth using the following calculation: […]
(§4) Where ftest is the fluorescence of the tested sample, and fvehicle is the fluorescence of the vehicle in which the drug is dissolved. […]

COV434 = experiment: CellTiter-Glo cell viability assay, COV434; type: cell-based; settings: Homo sapiens
Description: as §1, §2, §3, §4

SCCOHT-1 = experiment: CellTiter-Glo cell viability assay, SCCOHT-1; type: cell-based; settings: Homo sapiens; SCCOHT-1, 72 hours treatment
Description: as §1, §2, §3, §4

A204 = experiment: CellTiter-Glo cell viability assay, A204; type: cell-based; settings: Homo sapiens, read-out: anti-proliferative IC50
Description: as §1, §2, §3, §4

A427 = experiment: CellTiter-Glo cell viability assay, A427; type: cell-based; settings: Homo sapiens, A-427, read-out: anti-proliferative IC50
Description: as §1, §2, §3, §4

G401 = experiment: CellTiter-Glo cell viability assay, G401; type: cell-based; settings: Homo sapiens, G-401, read-out: anti-proliferative IC50
Description: as §1, §2, §3, §4

G402 = experiment: CellTiter-Glo cell viability assay, G402; type: cell-based; settings: Homo sapiens, G-402, read-out: anti-proliferative IC50
Description: as §1, §2, §3, §4

H522 = experiment: CellTiter-Glo cell viability assay, H522; type: cell-based; settings: Homo sapiens, NCI-H522; read-out: anti-proliferative IC50
Description: as §1, §2, §3, §4

[1] = system: SCCOHT cell lines (BIN67, COV434, and SCCOHT-1); experiment: Cell proliferation assays, three SCCOHT cell lines; type: cell-based; settings: Homo sapiens; range over BIN67, COV434, SCCOHT-1
Description: as §1, §2, §3, §4

[2] = system: Dual SMARCA2 and SMARCA4 deficient cell lines (A204, G401, G402, H522, and A427); experiment: Proliferation assays, dual SMARCA2 and SMARCA4 deficient cell lines; type: cell-based; settings: range over A204, G401, G402, H522, A427
Description: as §1, §2, §3, §4

[3] = system: SMARCA2 gene expression in BIN-67 cells; experiment: SMARCA2 gene expression in treated BIN-67 cells; type: cell-based, human; settings: in vitro treatment
[4] = system: SMARCA2 protein expression in BIN-67 cells; experiment: SMARCA2 protein expression in treated BIN-67 cells; type: cell-based, human; settings: in vitro treatment
[5] = system: BIN67 human tumor xenografts; experiment: SCCOHT xenograft model (BIN-67); type: in vivo, mice; settings: for mean tumor regression: BIN67 xenografts in mice, two weeks post-treatment initiation
Description: In vivo treatment of tumors in an SCCOHT xenograft model (BIN-67) was evaluated. In vivo xenograft tumors from SCCOHT cell line BIN-67 were dosed with (S)-N-hydroxy-2-(2-(4-methoxyphenyl)butanamido)thiazole-5-carboxamide (i.e., GB-3103) for 60 days.

[6] = system: G401 human malignant rhabdoid tumor xenografts; experiment: Malignant rhabdoid tumor xenograft model (G401); type: in vivo, mice
Description: In vivo treatment of tumors in a malignant rhabdoid tumor xenograft model (G401) was evaluated. In vivo xenograft tumors from MRT line G401 were dosed with (S)-N-hydroxy-2-(2-(4-methoxyphenyl)butanamido)thiazole-5-carboxamide (i.e., GB-3103) for 30 days.

CT-26 tumors = experiment: Syngeneic CT-26 mouse colon cancer model; type: in vivo
Description: Given the importance of MHC Class II expression and response to checkpoint inhibitor therapies, we tested the activity of GB-3103 alone and in combination with anti-mPD-1 and anti-mPD-L1 antibodies in a syngeneic CT-26 mouse colon cancer model. […] However, tumor growth resumed on Day 15 and continued to increase until Day 26 (see FIG. 7).

BIN67 cells = experiment: RNA-Seq analyses of treated BIN67 cells; type: cell-based, human
HDAC1 = HDAC1 (Homo sapiens, UniProt Q13547); experiment: HDAC isoform inhibition, HDAC1; type: biochemical
Description: (§5) In contrast to pan-HDAC inhibition, isoform restricted HDAC inhibition revokes immune privilege. HDAC3 has emerged as a key target to enhance immune function: • Decrease in Treg suppressive function • Increase in Natural Killer Cell ligand expression on tumors • Enhance macrophage host defense activity • Upregulation of PD-L1 expression and increased sensitivity to anti-PD1 treatments HDAC6 inhibition has potent immunomodulatory benefits including: • Decrease in expression of the anti-inflammatory cytokine IL-10 • Enhanced expression of MHC class I/II genes and increased expression of known tumor antigens • Decreased immunosuppression and enhanced immune function of melanoma patient T-cells

HDAC2 = HDAC2 (Homo sapiens, UniProt Q92769); experiment: HDAC isoform inhibition, HDAC2; type: biochemical
Description: as §5

HDAC3 = HDAC3 (Homo sapiens, UniProt O15379); experiment: HDAC isoform inhibition, HDAC3; type: biochemical
Description: as §5

HDAC4 = HDAC4 (Homo sapiens, UniProt P56524); experiment: HDAC isoform inhibition, HDAC4; type: biochemical
Description: as §5

HDAC5 = HDAC5 (Homo sapiens, UniProt Q9UQL6); experiment: HDAC isoform inhibition, HDAC5; type: biochemical
Description: as §5

HDAC6 = HDAC6 (Homo sapiens, UniProt Q9UBN7); experiment: HDAC isoform inhibition, HDAC6; type: biochemical
Description: as §5

HDAC7 = HDAC7 (Homo sapiens, UniProt Q8WUI4); experiment: HDAC isoform inhibition, HDAC7; type: biochemical
Description: as §5

HDAC8 = HDAC8 (Homo sapiens, UniProt Q9BY41); experiment: HDAC isoform inhibition, HDAC8; type: biochemical
Description: as §5

HDAC9 = HDAC9 (Homo sapiens, UniProt Q9UKV0); experiment: HDAC isoform inhibition, HDAC9; type: biochemical
Description: as §5

HDAC10 = HDAC10 (Homo sapiens, UniProt Q969S8); experiment: HDAC isoform inhibition, HDAC10; type: biochemical
Description: as §5

HDAC11 = HDAC11 (Homo sapiens, UniProt Q96DB2); experiment: HDAC isoform inhibition, HDAC11; type: biochemical
Description: as §5

Chain of HDAC6 (Q9UBN7 whole entry, canonical isoform): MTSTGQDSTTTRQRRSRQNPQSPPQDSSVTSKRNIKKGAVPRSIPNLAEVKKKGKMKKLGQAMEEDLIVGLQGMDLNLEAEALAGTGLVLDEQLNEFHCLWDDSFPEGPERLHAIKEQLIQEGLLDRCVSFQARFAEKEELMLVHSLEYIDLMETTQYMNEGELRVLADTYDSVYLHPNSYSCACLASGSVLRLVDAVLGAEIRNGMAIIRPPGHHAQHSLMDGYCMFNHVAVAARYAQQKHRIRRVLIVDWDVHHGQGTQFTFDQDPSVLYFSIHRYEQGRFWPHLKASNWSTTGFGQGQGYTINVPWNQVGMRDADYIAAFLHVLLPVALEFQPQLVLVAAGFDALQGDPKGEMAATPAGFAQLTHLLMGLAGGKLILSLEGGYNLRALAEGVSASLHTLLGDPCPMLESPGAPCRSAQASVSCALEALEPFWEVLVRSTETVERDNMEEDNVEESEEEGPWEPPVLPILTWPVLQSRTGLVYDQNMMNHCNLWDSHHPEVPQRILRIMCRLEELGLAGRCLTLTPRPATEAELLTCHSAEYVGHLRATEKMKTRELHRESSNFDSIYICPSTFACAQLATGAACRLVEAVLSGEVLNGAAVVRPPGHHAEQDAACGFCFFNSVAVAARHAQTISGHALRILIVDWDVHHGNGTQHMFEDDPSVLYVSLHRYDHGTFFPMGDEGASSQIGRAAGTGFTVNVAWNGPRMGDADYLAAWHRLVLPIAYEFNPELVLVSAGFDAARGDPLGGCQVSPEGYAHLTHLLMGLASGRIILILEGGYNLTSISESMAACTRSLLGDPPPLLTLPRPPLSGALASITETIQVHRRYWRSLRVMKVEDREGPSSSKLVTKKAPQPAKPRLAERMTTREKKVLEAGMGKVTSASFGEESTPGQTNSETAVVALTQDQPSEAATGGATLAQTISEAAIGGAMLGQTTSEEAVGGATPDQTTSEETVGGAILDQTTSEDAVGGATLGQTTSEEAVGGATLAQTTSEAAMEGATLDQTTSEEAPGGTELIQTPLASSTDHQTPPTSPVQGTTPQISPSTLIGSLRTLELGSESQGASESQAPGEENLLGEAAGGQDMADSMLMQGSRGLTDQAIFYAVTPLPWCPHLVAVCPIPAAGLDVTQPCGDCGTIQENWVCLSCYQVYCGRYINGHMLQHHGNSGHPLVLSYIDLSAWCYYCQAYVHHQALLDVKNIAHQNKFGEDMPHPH
Chain of HDAC10 (Q969S8 whole entry, canonical isoform): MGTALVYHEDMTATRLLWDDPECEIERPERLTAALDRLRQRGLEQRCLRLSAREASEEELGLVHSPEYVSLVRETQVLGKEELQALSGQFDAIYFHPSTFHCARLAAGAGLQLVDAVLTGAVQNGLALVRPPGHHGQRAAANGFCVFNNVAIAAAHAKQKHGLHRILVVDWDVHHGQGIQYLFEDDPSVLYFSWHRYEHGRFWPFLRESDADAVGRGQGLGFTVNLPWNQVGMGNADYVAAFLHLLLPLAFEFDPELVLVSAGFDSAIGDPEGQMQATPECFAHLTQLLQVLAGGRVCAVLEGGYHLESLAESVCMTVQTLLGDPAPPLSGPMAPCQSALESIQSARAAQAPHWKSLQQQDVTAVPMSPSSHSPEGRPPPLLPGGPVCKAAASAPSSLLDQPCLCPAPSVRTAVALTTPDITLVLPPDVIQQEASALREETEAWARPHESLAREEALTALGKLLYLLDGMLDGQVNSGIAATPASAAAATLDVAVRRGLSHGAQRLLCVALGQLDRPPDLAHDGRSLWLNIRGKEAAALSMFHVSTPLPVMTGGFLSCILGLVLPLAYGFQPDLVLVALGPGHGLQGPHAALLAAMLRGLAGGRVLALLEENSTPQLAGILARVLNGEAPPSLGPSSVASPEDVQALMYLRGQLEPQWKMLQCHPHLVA
Chain of HDAC2 (Q92769 whole entry, canonical isoform): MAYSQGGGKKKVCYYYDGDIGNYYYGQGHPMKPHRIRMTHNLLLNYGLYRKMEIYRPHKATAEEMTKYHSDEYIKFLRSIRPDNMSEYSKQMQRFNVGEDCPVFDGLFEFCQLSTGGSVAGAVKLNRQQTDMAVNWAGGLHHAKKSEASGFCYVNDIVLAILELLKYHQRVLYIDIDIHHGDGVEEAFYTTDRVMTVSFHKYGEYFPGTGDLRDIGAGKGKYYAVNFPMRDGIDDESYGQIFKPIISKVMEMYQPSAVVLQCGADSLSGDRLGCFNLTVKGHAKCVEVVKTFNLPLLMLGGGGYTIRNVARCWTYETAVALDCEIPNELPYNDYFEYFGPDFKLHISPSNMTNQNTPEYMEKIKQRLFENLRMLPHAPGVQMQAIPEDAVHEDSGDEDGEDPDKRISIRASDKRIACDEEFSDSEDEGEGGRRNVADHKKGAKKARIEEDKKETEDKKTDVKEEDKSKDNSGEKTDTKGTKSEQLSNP
Chain of HDAC7 (Q8WUI4 whole entry, canonical isoform): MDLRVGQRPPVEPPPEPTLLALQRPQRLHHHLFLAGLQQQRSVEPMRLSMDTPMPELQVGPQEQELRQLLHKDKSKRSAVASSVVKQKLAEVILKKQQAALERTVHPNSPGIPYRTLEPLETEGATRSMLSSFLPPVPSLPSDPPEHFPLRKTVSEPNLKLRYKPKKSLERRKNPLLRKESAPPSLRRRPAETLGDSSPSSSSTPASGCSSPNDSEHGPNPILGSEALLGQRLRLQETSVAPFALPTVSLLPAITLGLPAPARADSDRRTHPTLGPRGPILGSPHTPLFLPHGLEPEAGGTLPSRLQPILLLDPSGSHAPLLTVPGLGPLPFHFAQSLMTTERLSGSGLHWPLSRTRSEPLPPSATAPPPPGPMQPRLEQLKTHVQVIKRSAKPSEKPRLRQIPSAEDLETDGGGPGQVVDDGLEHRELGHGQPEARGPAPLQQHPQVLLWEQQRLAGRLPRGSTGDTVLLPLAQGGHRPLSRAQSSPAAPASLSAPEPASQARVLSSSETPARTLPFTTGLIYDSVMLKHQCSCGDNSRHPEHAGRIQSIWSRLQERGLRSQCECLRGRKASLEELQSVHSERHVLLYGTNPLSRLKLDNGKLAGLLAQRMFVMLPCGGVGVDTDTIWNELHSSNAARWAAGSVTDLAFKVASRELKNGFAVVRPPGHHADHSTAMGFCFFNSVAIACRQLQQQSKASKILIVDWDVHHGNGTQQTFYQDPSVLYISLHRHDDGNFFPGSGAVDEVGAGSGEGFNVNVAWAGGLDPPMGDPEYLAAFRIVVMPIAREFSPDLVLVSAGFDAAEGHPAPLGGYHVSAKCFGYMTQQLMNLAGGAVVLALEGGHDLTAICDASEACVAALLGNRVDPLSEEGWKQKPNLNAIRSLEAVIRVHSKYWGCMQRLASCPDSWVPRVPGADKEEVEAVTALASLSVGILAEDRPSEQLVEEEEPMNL
Chain of HDAC1 (Q13547 whole entry, canonical isoform): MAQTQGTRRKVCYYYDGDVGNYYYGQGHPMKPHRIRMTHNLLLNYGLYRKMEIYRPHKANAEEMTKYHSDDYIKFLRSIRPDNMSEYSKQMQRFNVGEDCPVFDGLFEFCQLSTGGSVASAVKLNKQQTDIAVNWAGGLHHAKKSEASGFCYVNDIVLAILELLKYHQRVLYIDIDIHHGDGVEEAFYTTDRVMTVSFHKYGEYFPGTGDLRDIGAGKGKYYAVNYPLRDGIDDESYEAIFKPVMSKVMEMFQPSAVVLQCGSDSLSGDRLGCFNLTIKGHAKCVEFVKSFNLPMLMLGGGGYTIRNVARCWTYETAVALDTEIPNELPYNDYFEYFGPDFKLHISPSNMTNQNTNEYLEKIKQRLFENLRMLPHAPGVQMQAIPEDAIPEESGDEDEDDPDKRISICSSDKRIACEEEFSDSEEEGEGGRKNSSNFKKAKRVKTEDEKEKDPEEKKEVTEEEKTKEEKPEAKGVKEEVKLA
Chain of HDAC4 (P56524 whole entry, canonical isoform): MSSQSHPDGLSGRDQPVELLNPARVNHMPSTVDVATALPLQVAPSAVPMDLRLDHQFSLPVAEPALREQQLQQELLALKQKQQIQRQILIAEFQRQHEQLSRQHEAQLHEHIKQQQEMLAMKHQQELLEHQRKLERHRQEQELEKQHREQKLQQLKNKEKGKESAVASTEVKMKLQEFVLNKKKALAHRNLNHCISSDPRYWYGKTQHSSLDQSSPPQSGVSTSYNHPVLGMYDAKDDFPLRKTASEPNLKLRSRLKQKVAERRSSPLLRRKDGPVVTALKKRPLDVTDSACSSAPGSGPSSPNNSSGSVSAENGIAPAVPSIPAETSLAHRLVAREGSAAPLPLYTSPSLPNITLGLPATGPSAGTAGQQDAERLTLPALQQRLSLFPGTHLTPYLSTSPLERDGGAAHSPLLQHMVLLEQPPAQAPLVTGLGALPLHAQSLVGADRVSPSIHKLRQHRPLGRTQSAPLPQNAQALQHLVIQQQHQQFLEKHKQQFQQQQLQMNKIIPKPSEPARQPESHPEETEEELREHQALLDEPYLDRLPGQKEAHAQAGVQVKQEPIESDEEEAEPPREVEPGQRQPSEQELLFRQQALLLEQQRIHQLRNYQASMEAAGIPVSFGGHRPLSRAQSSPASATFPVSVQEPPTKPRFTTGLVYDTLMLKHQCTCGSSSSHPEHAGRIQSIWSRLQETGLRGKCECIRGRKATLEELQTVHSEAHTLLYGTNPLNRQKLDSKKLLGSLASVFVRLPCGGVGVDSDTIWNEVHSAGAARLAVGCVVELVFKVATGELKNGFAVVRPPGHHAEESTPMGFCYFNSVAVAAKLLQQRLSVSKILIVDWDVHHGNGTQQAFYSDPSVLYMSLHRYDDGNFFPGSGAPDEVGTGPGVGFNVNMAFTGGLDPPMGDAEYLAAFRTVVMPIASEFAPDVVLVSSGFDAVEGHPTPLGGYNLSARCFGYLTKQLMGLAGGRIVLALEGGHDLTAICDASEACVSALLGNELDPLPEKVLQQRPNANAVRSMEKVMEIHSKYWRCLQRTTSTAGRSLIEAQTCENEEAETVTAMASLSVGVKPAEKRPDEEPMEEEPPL

Compound `CC[C@H](C(=O)Nc1ncc(C(=O)NO)s1)c1ccc(OC)cc1` [GB-3103, (S)-N-hydroxy-2-(2-(4-methoxyphenyl)butanamido)thiazol-5-carboxamide] has an IC50 (BIN67) of 51 nM, an IC50 (COV434; COV434, read-out: anti-proliferative IC50) of 35 nM and an IC50 (COV434; COV434, 72 hours treatment, read-out: IC50) of 35 nM. The IC50 (SCCOHT-1) was 293 nM, the IC50 (A204) was 95 nM and the IC50 (A427) was 174 nM. It also gave an IC50 (G401) of 138 nM, an IC50 (G402) of 71 nM and an IC50 (H522) of 102 nM. For the same compound, the IC50 [1] was 51 to 293 nM, the IC50 [2] was 50 to 200 nM and the “induction of SMARCA2 gene (mRNA) expression” value [3] was “concentration and time dependent induction of SMARCA2 gene re-expression; also recorded: potent concentration- and time-dependent induction of SMARCA2 expression at both mRNA and protein levels”. The “induction of SMARCA2 protein expression” value [4] was “potent concentration- and time-dependent induction of SMARCA2 expression at both mRNA and protein levels”, the mean tumor regression ([5]; 5 mg/kg QD) was 26% and the mean tumor regression ([5]; 10 mg/kg QD) was 33%. The “tumor volume compared to vehicle control tumors” value ([5]; BIN-67 xenograft, dosed for 60 days) was “statistically significant decreases in volume”, the “tumor volume compared to vehicle control tumors” value ([6]; G401 xenograft, dosed for 30 days) was “statistically significant decreases in volume” and the “tumor growth inhibition (TGI) compared to vehicle control” value ([6]; G401 xenografts in mice, 5 mg/kg, QD, P<0.05) was 70%. The “effect on established tumors” value (CT-26 tumors; CT-26 syngeneic model, combined with anti-mPD-1 antibody) was “regression of established CT-26 tumors”, the “effect on established tumors” value (CT-26 tumors; CT-26 syngeneic model, combined with anti-mPD-L1 antibody) was “regression of established CT-26 tumors” and the TGI (CT-26 tumors; CT-26 syngeneic model, single agent) was 93%. The “day on which tumor growth resumed” value (CT-26 tumors; CT-26 syngeneic model, single agent, growth continued until Day 26) was 15 days, the tumor memory response (CT-26 tumors; alone and in combination with anti-PD-1/anti-PD-L1 checkpoint modulators, mice) was “creates a tumor memory response preventing re-growth of tumors” and the RNA-Seq findings (BIN67 cells) was “affects DNA replication and mRNA stability as well as inducing the expression of MHC Class II proteins”. For the same compound, the IC50 (HDAC1) was 1 nM, the IC50 (HDAC2) was 5.3 nM and the IC50 (HDAC3) was 0.565 nM. It also gave an IC50 (HDAC4) of 138 nM, an IC50 (HDAC5) of 73.5 nM and an IC50 (HDAC6) of 0.706 nM. For the same compound, the “mode of inhibition of HDAC6” value (HDAC6) was “irreversible”, the IC50 (HDAC7) was 34.5 nM and the IC50 (HDAC8) was 133 nM. The IC50 (HDAC9) was 187 nM, the IC50 (HDAC10) was 2.03 nM and the IC50 (HDAC11) was 5780 nM.
